Experiments:
[1] = tested on: CDE-CHR elements of the cyclin A promoter; experiment: EMSA of EC nuclear extracts with CDE-CHR / CHR oligonucleotides; format: cell-based, Bovine
[2] = tested on: CHR oligonucleotides (cyclin A promoter); experiment: EMSA of recombinant protein with CHR oligonucleotides; format: binding; conditions: recombinant protein 1 μg
Excerpt: Nuclear extracts from control and TNF-treated EC were mixed with biotin-labeled CHR oligonucleotides and the bound proteins were captured on avidin-agarose beads. Eluted proteins from beads were subjected to Western blot analysis for ezrin. […] Specificity of CHR-ezrin binding was further confirmed by EMSA assays using recombinant-ezrin protein (GST-ezrin). […] We next evaluated the effect of TNF-induced ezrin binding to cyclin A-CHR by dominant-negative ezrin over-expression. EC were transiently transfected with wild-type (wtEzrin) and dominant negative (dnEzrin) ezrin expression vector. […] That TNF-induced modulation of ezrin up-regulates CHR-binding activity was further evident from ezrin immunodepletion experiments. Endogenous ezrin was immunodepleted from control and TNF-treated nuclear extracts by treating extracts with anti-ezrin antibodies over 5 rounds. Immunodepleted extracts were then analyzed by EMSA for CHR-binding activity.
FIGS. 9A-D are explained in more detail as follows. […] Eluted proteins from beads were analyzed for ezrin protein in western blots. […] (FIG. 9C) Nuclear extracts from control and TNF-treated BAECs, transfected with wild type or dominant negative ezrin, were evaluated CHR binding activity in EMSAs. […] Depleted extracts alone or depleted extracts from TNF treated cells reconstituted with GST-ezrin were then analyzed for CHR binding activity. […]

[3] = tested on: cyclin A CHR elements; experiment: South-western analysis and UV cross-linking of nuclear proteins with CDE-mCHR or mCDE-CHR probes; format: cell-based, Bovine; conditions: cycloheximide 5 μg/mL along with TNF
Excerpt: Nuclear proteins from asynchronously growing BAEC with or without TNF were probed with ^32P-labeled CDE-mCHR or mCDE-CHR oligonucleotides.
To confirm that 84 kDa protein in TNF treated extracts identified in FIGS. 8A-B, does bind to CHR elements, we performed UV cross-linking experiments. EMSA reactions were assembled as before followed by UV cross-linking. The reactions were then boiled in SDS loading buffer and resolved on 12% SDS-PAGE. In reactions probed with CDE-mCHR the 35-kDa protein seen before was observed again (FIGS. 8C-D). In reactions probed with mCDE-CHR probe, the previously identified (FIGS. 8A-B) 39-kDa protein was found cross-linked to oligonucleotide. Similarly, the 84-kDa protein from TNF treated extract cross-linked with mCDE-CHR probe, further confirming the southwestern results.
FIGS. 8A-E are explained in more detail as follows. FIGS. 8A-B. Representative autoradiograph of south-western analysis. Nuclear proteins from asynchronously growing EC with or with out TNF treatment were size fractionated on a 12% SDS-PAGE gel, transferred to PVDF membrane and renatured. Membranes were then incubated with radio-labeled CDE-mCHR or mCDE-CHR oligonucleotide. Membranes were washed, air dried and autoradiographed. […]

[4] = tested on: cyclin A mRNA; experiment: Ribonuclease protection assay (RPA) of cyclin A mRNA expression in EC; format: cell-based, Bovine; conditions: pre-treatment of EC with Y27632
Method: FIGS. 1A-D are explained in more detail as follows. Synchronized ECs were serum stimulated in the presence or absence of TNF for indicated times. Total cellular RNA was isolated and was analyzed by RPA for cyclin A, cyclin B and cyclin D1 expression. A representative autoradiograph is shown (FIG. 1A). mRNA expression of cyclins was corrected to that of GAPDH and quantified by densitometric analysis (FIGS. 1B-D). Data represent average of 3 similar experiments.
FIGS. 12A-C are explained in more detail as follows. (FIG. 12A) Representative PCR gel photograph showing amplification of 200 bp cyclin A promoter emcompassing CHR elements from ant-ezrin antibody immunoprecipitated chromatin. (FIG. 12B) BAECs co-transfected with cyclin A promoter-reporter construct and either wt or dnEzrin constructs and cultured in presence or absence of TNF for 24 h before were analyzed for luciferase activity. Bar graph represents average promoter activity from 3 similar experiments (*p<0.01). (FIG. 12C) Total RNA from empty vector wt or dnEzrin transfected cells under control or TNF-treatment conditions was evaluated for cyclin A mRNA expression by ribonuclease protection assays. Representative autoradiograph is shown.
3. […]

[5] = molecular target: RhoA kinase (ROCK-2) (Bos taurus, UniProt Q28021); experiment: Western blot for ROCK-2 in EC lysates; format: cell-based, Bovine; conditions: co-treatment with Y27632 20 micromolar at the time of TNF exposure
[6] = tested on: EC proliferation; experiment: Thymidine uptake assay, EC proliferation; format: cell-based, Bovine
Method: Having documented TNF-induced nuclear translocation and the ability of ezrin to bind to cyclin A CHR elements, the functional consequences of TNF-mediated ezrin modulation in EC was determined. To evaluate the effect of ezrin over-expression in the presence of TNF on cell proliferation, EC were transiently transfected with either wtEzrin or dnEzrin expression vectors. Cells were treated or not with TNF and BrdU (50 μg/mL) was added to all cultures for 6 hours. […] Tritiated thymidine uptake assays were performed as an independent measure of cell proliferation in similarly transfected and treated cells and corroborated the findings of BrdU incorporation (FIG. 11C).
FIGS. 11A-E are explained in more detail as follows. Quiescent BAECs transiently transfected with empty vector, wild type and dominant negative ezrin were cultured in the absence (control) or presence of 20 ng/mL TNF for 24 hrs. Cells were labeled with BrdU (50 μg/mL) for last 6 hrs of culture. […] BrdU positive cells were counted in at least 6 different visual fields. […]
To provide further evidence that the improvement in EC function attained by inhibition of ROCK-2 was mediated by ezrin, we performed rescue experiments. EC transiently transfected with wtEzrin and treated with TNF were co-treated with increasing doses of Y27632 and cell proliferation was determined by thymidine incorporation.

[7] = tested on: ezrin phosphorylation; experiment: Western blot for phospho-ezrin in EC lysates; format: cell-based, Bovine; conditions: Y27632 20 μM, all experimental time points

Chain of RhoA kinase (ROCK-2) (Q28021 whole entry): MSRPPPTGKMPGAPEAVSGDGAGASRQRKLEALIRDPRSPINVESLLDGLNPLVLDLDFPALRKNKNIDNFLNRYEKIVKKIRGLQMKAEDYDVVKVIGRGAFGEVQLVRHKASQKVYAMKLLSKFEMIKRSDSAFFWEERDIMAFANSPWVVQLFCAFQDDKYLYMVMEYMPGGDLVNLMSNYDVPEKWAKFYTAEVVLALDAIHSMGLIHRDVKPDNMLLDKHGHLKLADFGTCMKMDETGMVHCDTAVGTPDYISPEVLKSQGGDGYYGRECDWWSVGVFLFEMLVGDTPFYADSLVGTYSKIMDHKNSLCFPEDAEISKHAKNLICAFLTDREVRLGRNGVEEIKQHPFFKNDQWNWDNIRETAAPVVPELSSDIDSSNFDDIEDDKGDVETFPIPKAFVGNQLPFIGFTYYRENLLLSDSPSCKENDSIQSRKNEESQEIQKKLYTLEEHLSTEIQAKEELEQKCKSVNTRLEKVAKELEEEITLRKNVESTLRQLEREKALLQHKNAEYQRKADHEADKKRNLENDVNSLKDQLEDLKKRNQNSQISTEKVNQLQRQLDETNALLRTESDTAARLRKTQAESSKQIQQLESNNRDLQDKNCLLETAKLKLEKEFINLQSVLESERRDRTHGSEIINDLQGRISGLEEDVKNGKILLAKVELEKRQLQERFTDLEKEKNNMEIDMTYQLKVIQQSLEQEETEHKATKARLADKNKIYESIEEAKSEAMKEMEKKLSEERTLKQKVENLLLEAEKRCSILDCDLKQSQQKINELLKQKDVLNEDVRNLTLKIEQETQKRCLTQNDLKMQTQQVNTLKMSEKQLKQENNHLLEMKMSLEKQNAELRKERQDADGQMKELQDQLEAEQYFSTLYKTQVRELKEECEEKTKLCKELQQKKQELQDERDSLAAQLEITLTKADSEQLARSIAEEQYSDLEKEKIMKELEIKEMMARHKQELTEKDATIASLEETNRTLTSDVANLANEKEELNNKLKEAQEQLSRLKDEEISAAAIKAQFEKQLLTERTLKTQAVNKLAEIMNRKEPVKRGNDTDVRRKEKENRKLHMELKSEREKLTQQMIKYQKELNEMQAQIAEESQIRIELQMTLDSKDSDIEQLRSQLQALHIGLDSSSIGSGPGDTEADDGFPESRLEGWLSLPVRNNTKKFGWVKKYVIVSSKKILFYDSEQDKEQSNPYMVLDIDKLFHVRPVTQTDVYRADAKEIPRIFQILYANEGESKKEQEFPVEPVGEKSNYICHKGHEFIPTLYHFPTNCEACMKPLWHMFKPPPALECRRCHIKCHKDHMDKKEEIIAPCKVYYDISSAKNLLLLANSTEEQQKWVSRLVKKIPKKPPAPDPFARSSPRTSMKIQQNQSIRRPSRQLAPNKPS

Question: For “Recombinant ezrin: Recombinant human ezrin protein (GST-ezrin)”, which “CHR-binding activity of ezrin-immunodepleted TNF-extract” value ([1]; recombinant ezrin added back to the depleted TNF-extract) is on record?
Answer: significantly increased

Question: And the “complex formation with CHR oligonucleotides” value [2]?
Answer: formed complex

Question: For `C[C@@H]1C[C@@H]([C@H](O)CC2CC(=O)NC(=O)C2)C(=O)[C@@H](C)C1` [cycloheximide], which “induction of 84-kDa protein by TNF” value [3] is on record?
Answer: failed to induce the protein

Question: `C[C@@H](N)[C@H]1CC[C@H](C(=O)Nc2ccncc2)CC1` [Y27632] was tested. Which “TNF-mediated inhibition of cyclin A mRNA expression” value [4] did it give?
Answer: reversed

Question: And the “TNF-induced CHR binding activity” value ([1]; nuclear extracts from EC co-treated with TNF and Y27632)?
Answer: significantly reduced

Question: What about the “ROCK-2 induction by TNF” value [5] of the same molecule?
Answer: completely abolished

Question: What about the “ezrin/TNF mediated inhibition of EC proliferation” value ([6]; EC transfected with wtEzrin, treated with TNF, increasing doses of Y27632) of the same molecule?
Answer: dose dependently reversed

Question: What about the “inhibitory effect of TNF on EC proliferation” value ([6]; treatment of EC with Y27632 in the presence of TNF) of the same molecule?
Answer: partially abrogated

Question: What about the TNF-induced ezrin phosphorylation [7] of the same molecule?
Answer: completely inhibited

B1: recombinant-DP1 protein: control recombinant-DP1 protein used in EMSA (protein, UniProt Q14186 1-410, looked up)
Transcription factor Dp-1: MAKDAGLIEANGELKVFIDQNLSPGKGVVSLVAVHPSTVNPLGKQLLPKTFGQSNVNIAQQVVIGTPQRPAASNTLVVGSPHTPSTHFASQNQPSDSSPWSAGKRNRKGEKNGKGLRHFSMKVCEKVQRKGTTSYNEVADELVAEFSAADNHILPNESAYDQKNIRRRVYDALNVLMAMNIISKEKKEIKWIGLPTNSAQECQNLEVERQRRLERIKQKQSQLQELILQQIAFKNLVQRNRHAEQQASRPPPPNSVIHLPFIIVNTSKKTVIDCSISNDKFEYLFNFDNTFEIHDDIEVLKRMGMACGLESGSCSAEDLKMARSLVPKALEPYVTEMAQGTVGGVFITTAGSTSNGTRFSASDLTNGADGMLATSSNGSQYSGSRVETPVSYVGEDDEEDDDFNENDEDD
Question: Which “complex formation with CHR oligonucleotides” value [2] does the source give for B1 here?
Answer: did not form the complex
